Like-named read-outs stand apart in the source and are kept apart here.
Key:
[1] = system: Key Broadleaf Weed and Crop Species; assay: Post-emergent Test II herbicidal activity (Table 15); type: in vivo; settings: post-emergence, 336 h, 14 d; for pest or weed control at 35 g/ha: 35 g ai/ha; for pest or weed control at 70 g/ha: 70 g ai/ha; for pest or weed control at 140 g/ha: 140 g ai/ha
How it was run: (§1)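 Greenhouse-grown seedlings at first/second true leaf receive a track spray at 187 L/ha, using a highest rate plus two-fold serial dilutions down to 1/16×. Watering is by subirrigation to avoid wash-off. Percent injury (0-100) is judged by eye at 14 d against untreated plants.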

[2] = system: Key Grass and Sedge Weeds as well as Grass Crops; assay: Post-emergent Test II herbicidal activity (Table 16); type: in vivo; settings: post-emergence, 336 h; for pest or weed control at 35 g/ha: 35 g ai/ha; for pest or weed control at 70 g/ha: 70 g ai/ha; for pest or weed control at 140 g/ha: 140 g ai/ha
How it was run: as §1

[3] = Abutilon theophrasti, velvetleaf (Abutilon theophrasti), read-out: Visual Growth Reduction (%) 14 Days After Application, ABUTH
[4] = Amaranthus retroflexus, redroot pigweed (Amaranthus retroflexus), read-out: Visual Growth Reduction (%) 14 Days After Application, AMARE
[5] = Brassica napus, oilseed rape, canola (Brassica napus), read-out: Visual Growth Reduction (%) 14 Days After Application, BRSNN
[6] = Chenopodium album, lambsquarters (Chenopodium album), read-out: Visual Growth Reduction (%) 14 Days After Application, CHEAL
[7] = Euphorbia heterophylla, wild poinsettia (Euphorbia heterophylla), read-out: Visual Growth Reduction (%) 14 Days After Application, EPHHL
[8] = Helianthus annuus, sunflower (Helianthus annuus), read-out: Visual Growth Reduction (%) 14 Days After Application, HELAN
[9] = Cyperus esculentus, yellow nutsedge (Cyperus esculentus), 14 days after application, read-out: Visual Growth Reduction (%) 14 Days After Application CYPES
[10] = Echinochloa crus-galli, barnyardgrass (Echinochloa crus-galli), 14 days after application, read-out: Visual Growth Reduction (%) 14 Days After Application ECHCG
[11] = Oryza sativa, rice (Oryza sativa), 14 days after application, read-out: Visual Growth Reduction (%) 14 Days After Application ORYSA
[12] = Setaria faberi, giant foxtail (Setaria faberi), 14 days after application, read-out: Visual Growth Reduction (%) 14 Days After Application SETFA
[13] = Triticum aestivum, wheat, spring (Triticum aestivum), 14 days after application, read-out: Visual Growth Reduction (%) 14 Days After Application TRZAS
[14] = Zea mays, maize, corn (Zea mays), 14 days after application, read-out: Visual Growth Reduction (%) 14 Days After Application ZEAMX
[15] = Cyperus esculentus, yellow nutsedge (Cyperus esculentus), 14 d, read-out: Visual Growth Reduction (%) 14 Days After Application, CYPES
[16] = Echinochloa crus-galli, barnyardgrass (Echinochloa crus-galli), 14 d, read-out: Visual Growth Reduction (%) 14 Days After Application, ECHCG
[17] = Oryza sativa, rice (Oryza sativa), 14 d, read-out: Visual Growth Reduction (%) 14 Days After Application, ORYSA
[18] = Setaria faberi, giant foxtail (Setaria faberi), 14 d, read-out: Visual Growth Reduction (%) 14 Days After Application, SETFA
[19] = Triticum aestivum, wheat, spring (Triticum aestivum), 14 d, read-out: Visual Growth Reduction (%) 14 Days After Application, TRZAS
[20] = Zea mays, maize, corn (Zea mays), 14 d, read-out: Visual Growth Reduction (%) 14 Days After Application, ZEAMX

Row | Structure (SMILES) | pest or weed control at 35 g/ha [1, 3] [%] | pest or weed control at 70 g/ha [1, 3] [%] | pest or weed control at 140 g/ha [1, 3] [%] | pest or weed control at 35 g/ha [1, 4] [%] | pest or weed control at 70 g/ha [1, 4] [%] | pest or weed control at 140 g/ha [1, 4] [%] | pest or weed control at 35 g/ha [1, 5] [%] | pest or weed control at 70 g/ha [1, 5] [%] | pest or weed control at 140 g/ha [1, 5] [%] | pest or weed control at 35 g/ha [1, 6] [%] | pest or weed control at 70 g/ha [1, 6] [%] | pest or weed control at 140 g/ha [1, 6] [%] | pest or weed control at 35 g/ha [1, 7] [%] | pest or weed control at 70 g/ha [1, 7] [%] | pest or weed control at 140 g/ha [1, 7] [%] | pest or weed control at 35 g/ha [1, 8] [%] | pest or weed control at 70 g/ha [1, 8] [%] | pest or weed control at 140 g/ha [1, 8] [%] | melting point [°C] | other results
1 | COC(=O)c1nc(-c2cc3sccc3cc2F)c(F)c(N)c1Cl [Compound 3.14] | 0 to 29 | 0 to 29 | 0 to 29 | 85 to 94 | 95 to 100 | 95 to 100 | 0 to 29 | 0 to 29 | 0 to 29 | 85 to 94 | 85 to 94 | 95 to 100 | 30 to 44 | 30 to 44 | 60 to 74 | 85 to 94 | 85 to 94 | 95 to 100 | 112 | pest or weed control at 35 g/ha [2, 9]: 0 to 29%; pest or weed control at 70 g/ha [2, 9]: 0 to 29%; pest or weed control at 140 g/ha [2, 9]: 0 to 29%; pest or weed control at 35 g/ha [2, 10]: 0 to 29%; pest or weed control at 70 g/ha [2, 10]: 0 to 29%; pest or weed control at 140 g/ha [2, 10]: 0 to 29%; pest or weed control at 35 g/ha [2, 11]: 0 to 29%; pest or weed control at 70 g/ha [2, 11]: 0 to 29%; pest or weed control at 140 g/ha [2, 11]: 0 to 29%; pest or weed control at 35 g/ha [2, 12]: 0 to 29%; pest or weed control at 70 g/ha [2, 12]: 0 to 29%; pest or weed control at 140 g/ha [2, 12]: 0 to 29%; pest or weed control at 35 g/ha [2, 13]: 0 to 29%; pest or weed control at 70 g/ha [2, 13]: 0 to 29%; pest or weed control at 140 g/ha [2, 13]: 0 to 29%; pest or weed control at 35 g/ha [2, 14]: 0 to 29%; pest or weed control at 70 g/ha [2, 14]: 30 to 44%; pest or weed control at 140 g/ha [2, 14]: 60 to 74%
2 | COC(=O)c1nc(-c2cccc3occc23)c(F)c(N)c1Cl [Compound 2.15] | 45 to 59 | 75 to 84 | 95 to 100 | 95 to 100 | 95 to 100 | 95 to 100 | 45 to 59 | 75 to 84 | 85 to 94 | 95 to 100 | 95 to 100 | 95 to 100 | 0 to 29 | 0 to 29 | 0 to 29 | 45 to 59 | 75 to 84 | 75 to 84 | 100 to 103 | pest or weed control at 35 g/ha [2, 15]: 0 to 29%; pest or weed control at 70 g/ha [2, 15]: 0 to 29%; pest or weed control at 140 g/ha [2, 15]: 0 to 29%; pest or weed control at 35 g/ha [2, 16]: 0 to 29%; pest or weed control at 70 g/ha [2, 16]: 45 to 59%; pest or weed control at 140 g/ha [2, 16]: 75 to 84%; pest or weed control at 35 g/ha [2, 17]: 0 to 29%; pest or weed control at 70 g/ha [2, 17]: 0 to 29%; pest or weed control at 140 g/ha [2, 17]: 0 to 29%; pest or weed control at 35 g/ha [2, 18]: 0 to 29%; pest or weed control at 70 g/ha [2, 18]: 0 to 29%; pest or weed control at 140 g/ha [2, 18]: 0 to 29%; pest or weed control at 35 g/ha [2, 19]: 0 to 29%; pest or weed control at 70 g/ha [2, 19]: 0 to 29%; pest or weed control at 140 g/ha [2, 19]: 0 to 29%; pest or weed control at 35 g/ha [2, 20]: 95 to 100%; pest or weed control at 70 g/ha [2, 20]: 95 to 100%; pest or weed control at 140 g/ha [2, 20]: 95 to 100%

Source: patent US20170050957A1, “4-AMINO-6-(HETEROCYCLIC)PICOLINATES AND 6-AMINO-2-(HETEROCYCLIC)PYRIMIDINE-4-CARBOXYLATES AND THEIR USE AS HERBICIDES” (Dow AgroSciences LLC, priority 2013, published 2017)
